Source: patent publication US10212936B2, “Molecules having pesticidal utility, and intermediates, compositions, and processes, related thereto” (priority 2014, dated 2019)

Experiments:
Format in all cases: in vivo
[1] = test system: Yellow Fever Mosquito (Aedes aegypti, AEDSAE); test: Bioassay on Yellow Fever Mosquito (YFM) larvae, 96-well plate; conditions: about 1 day-old larvae, 4000 ppm DMSO master plate diluted, graded after 3 days
Procedure: Example C: Bioassays on Yellow Fever Mosquito (Aedes aegypti, AEDSAE) (“YFM”)
Certain molecules disclosed in this document were tested against YFM using procedures described in the following paragraph. In the reporting of the results, the “YFM Rating Table” was used (See Table Section).
Master plates containing 400 μg of a molecule dissolved in 100 μL of dimethyl sulfoxide (DMSO) (equivalent to a 4000 ppm solution) are used. A master plate of assembled molecules contains 15 μL per well. To this plate, 135 μL of a 90:10 water:acetone mixture is added to each well. A robot (Biomek® NXP Laboratory Automation Workstation) is programmed to dispense 15 μL aspirations from the master plate into an empty 96-well shallow plate (“daughter” plate). There are 6 reps (“daughter” plates) created per master. The created daughter plates are then immediately infested with YFM larvae.
The day before plates are to be treated, mosquito eggs are placed in Millipore water containing liver powder to begin hatching (4 g. into 400 mL). After the daughter plates are created using the robot, they are infested with 220 μL of the liver powder/larval mosquito mixture (about 1 day-old larvae). After plates are infested with mosquito larvae, a non-evaporative lid is used to cover the plate to reduce drying. Plates are held at room temperature for 3 days prior to grading. After 3 days, each well is observed and scored based on mortality. The results are indicated in the table entitled “Table ABC: Biological Results” (See Table Section).

[2] = test system: Cabbage Looper (Trichoplusia ni, TRIPNI); test: Bioassay on Cabbage Looper (CL), 128-well diet tray assay; conditions: 168 h, 50 μg/cm^2 on artificial diet, second instar larvae, five to seven days, 25° C., read-out: CL % Control (or Mortality) rating
Procedure: (§1) Example A: Bioassays on Beet Armyworm (Spodoptera exigua, LAPHEG) (“BAW”), Corn Earworm (Helicoverpa zea, HELIZE) (“CEW”), and Cabbage Looper (Trichoplusia ni, TRIPNI) (“CL”)
(§2) Certain molecules disclosed in this document were tested against BAW, CEW, and CL using procedures described in the following examples. In the reporting of the results, the “BAW, CEW, & CL Rating Table” was used (See Table Section).
Bioassays on CL were conducted using a 128-well diet tray assay. one to five second instar CL larvae were placed in each well (3 mL) of the diet tray that had been previously filled with 1 mL of artificial diet to which 50 μg/cm^2 of the test molecule (dissolved in 50 μL of 90:10 acetone-water mixture) had been applied (to each of eight wells) and then allowed to dry. Trays were covered with a clear self-adhesive cover and held at 25° C., 14:10 light-dark for five to seven days. Percent mortality was recorded for the larvae in each well; activity in the eight wells was then averaged. The results are indicated in the table entitled “Table ABC: Biological Results” (See Table Section).

[3] = test system: Beet Armyworm (Spodoptera exigua, LAPHEG); test: Bioassay on Beet Armyworm (BAW), 128-well diet tray assay; conditions: 168 h, 50 μg/cm^2 on artificial diet, second instar larvae, five to seven days, 25° C., read-out: BAW % Control (or Mortality) rating
Procedure: as §1, §2
Bioassays on BAW were conducted using a 128-well diet tray assay. one to five second instar BAW larvae were placed in each well (3 mL) of the diet tray that had been previously filled with 1 mL of artificial diet to which 50 μg/cm^2 of the test molecule (dissolved in 50 μL of 90:10 acetone-water mixture) had been applied (to each of eight wells) and then allowed to dry. Trays were covered with a clear self-adhesive cover and held at 25° C., 14:10 light-dark for five to seven days. Percent mortality was recorded for the larvae in each well; activity in the eight wells was then averaged. The results are indicated in the table entitled “Table ABC: Biological Results” (See Table Section).

Row | SMILES | YFM % Control (or Mortality) rating [1] | mortality at 50 µg/cm2 [2] [%] | mortality at 50 µg/cm2 [3] [%]
1 | O=C(Nc1ccc(-c2ncn(-c3ccc(OC(F)(F)F)cc3)n2)cc1)Nc1ccnn1-c1ccccc1 [F10, 1-(1-Phenyl-1H-pyrazol-5-yl)-3-(4-(1-(4-(trifluoromethoxy)phenyl)-1H-1,2,4-triazol-3-yl)phenyl)urea] | D (No activity noticed in this bioassay) | 50 to 100 | 50 to 100
2 | O=C(NCCc1ccc(-c2ncn(-c3ccc(OC(F)(F)F)cc3)n2)cc1)Nc1ccnn1-c1ccccc1 [F51, 1-(1-phenyl-1H-pyrazol-5-yl)-3-(4-(1-(4-(trifluoromethoxy)phenyl)-1H-1,2,4-triazol-3-yl)phenethyl)urea] |  | 0 | 0
3 | CCOC(=O)c1c(C)csc1NC(=O)Nc1ccc(-c2ncn(-c3ccc(OC(F)(F)F)cc3)n2)cc1 [F1, ethyl 4-methyl-2-(3-(4-(1-(4-(trifluoromethoxy)phenyl)-1H-1,2,4-triazol-3-yl)phenyl)ureido)thiophene-3-carboxylate] | D (No activity noticed in this bioassay) | 0 | 0
4 | O=C(NCCc1ccc(-c2ncn(-c3ccc(OC(F)(F)F)cc3)n2)cc1)NC1=C(c2c(Cl)cccc2Cl)C(=O)CO1 [F54, 1-(3-(2,6-Dichlorophenyl)-4-oxo-4,5-dihydrofuran-2-yl)-3-(4-(1-(4-(trifluoromethoxy)phenyl)-1H-1,2,4-triazol-3-yl)phenethyl)urea] | A (80-100) | 0 | 0
5 | CCOC(=O)c1cnn(-c2ccc(Cl)cc2C)c1NC(=O)Nc1ccc(-c2ncn(-c3ccc(OC(F)(F)F)cc3)n2)cc1 [F2, Ethyl 1-(4-chloro-2-methylphenyl)-5-(3-(4-(1-(4-(trifluoromethoxy)phenyl)-1H-1,2,4-triazol-3-yl)phenyl)ureido)-1H-pyrazole-4-carboxylate] | D (No activity noticed in this bioassay) | 0 | 0
6 | O=C(NCCc1ccc(-c2ncn(-c3ccc(OC(F)(F)F)cc3)n2)cc1)Nc1scnc1-c1c(Cl)cccc1Cl [F64, 1-(4-(2,6-Dichlorophenyl)thiazol-5-yl)-3-(4-(1-(4-(trifluoromethoxy)phenyl)-1H-1,2,4-triazol-3-yl)phenethyl)urea] | A (80-100) | 50 to 100 | 0
7 | Cc1ccc(C)c(C2=C(NC(=O)NCCc3ccc(-c4ncn(-c5ccc(OC(F)(F)F)cc5)n4)cc3)OCC2=O)c1 [F56, 1-(3-(2,5-Dimethylphenyl)-4-oxo-4,5-dihydrofuran-2-yl)-3-(4-(1-(4-(trifluoromethoxy)phenyl)-1H-1,2,4-triazol-3-yl)phenethyl)urea] | A (80-100) | 50 to 100 | 50 to 100
8 | O=C(Nc1ccc(-c2ncn(-c3ccc(OC(F)(F)F)cc3)n2)cc1)Nc1nccn1-c1cccnc1 [F32, 1-(1-(Pyridin-3-yl)-1H-imidazol-2-yl)-3-(4-(1-(4-(trifluoromethoxy)phenyl)-1H-1,2,4-triazol-3-yl)phenyl)urea] |  | 0 to 50 | 50 to 100
9 | O=C(Nc1ccc(-c2ncn(-c3ccc(OC(F)(F)F)cc3)n2)cc1)Nc1scnc1-c1c(Cl)cccc1Cl [F48, 1-(4-(2,6-Dichlorophenyl)thiazol-5-yl)-3-(4-(1-(4-(trifluoromethoxy)phenyl)-1H-1,2,4-triazol-3-yl)phenyl)urea] | A (80-100) |  | 
10 | CCc1ccccc1-c1ncsc1NC(=O)Nc1ccc(-c2ncn(-c3ccc(OC(F)(F)F)cc3)n2)cc1 [F49, 1-(4-(2-ethylphenyl)thiazol-5-yl)-3-(4-(1-(4-(trifluoromethoxy)phenyl)-1H-1,2,4-triazol-3-yl)phenyl)urea] |  | 50 to 100 | 50 to 100
11 | Cc1ccc(C)c(-c2ncsc2NC(=O)Nc2ccc(-c3ncn(-c4ccc(OC(F)(F)F)cc4)n3)cc2)c1 [F47, 1-(4-(2,5-Dimethylphenyl)thiazol-5-yl)-3-(4-(1-(4-(trifluoromethoxy)phenyl)-1H-1,2,4-triazol-3-yl)phenyl)urea] | A (80-100) | 50 to 100 | 50 to 100
12 | Cc1ccc(C)c(-c2c(NC(=O)NCCc3ccc(-c4ncn(-c5ccc(OC(F)(F)F)cc5)n4)cc3)on(C)c2=O)c1 [F57, 1-(4-(2,5-Dimethylphenyl)-2-methyl-3-oxo-2,3-dihydroisoxazol-5-yl)-3-(4-(1-(4-(trifluoromethoxy)phenyl)-1H-1,2,4-triazol-3-yl)phenethyl)urea] | A (80-100) | 50 to 100 | 50 to 100
13 | Cn1oc(NC(=O)NCCc2ccc(-c3ncn(-c4ccc(OC(F)(F)F)cc4)n3)cc2)c(-c2c(Cl)cccc2Cl)c1=O [F60, 1-(4-(2,6-Dichlorophenyl)-2-methyl-3-oxo-2,3-dihydroisoxazol-5-yl)-3-(4-(1-(4-(trifluoromethoxy)phenyl)-1H-1,2,4-triazol-3-yl)phenethyl)urea] | A (80-100) | 50 to 100 | 50 to 100
14 | Cc1cc(C)c(C2=C(NC(=O)NCCc3ccc(-c4ncn(-c5ccc(OC(F)(F)F)cc5)n4)cc3)OCC2=O)c(C)c1 [F53, 1-(3-mesityl-4-oxo-4,5-dihydrofuran-2-yl)-3-(4-(1-(4-(trifluoromethoxy)phenyl)-1H-1,2,4-triazol-3-yl)phenethyl)urea] | A (80-100) | 50 to 100 | 0 to 50
15 | CC(C)CC(C)c1sccc1NC(=O)Nc1ccc(-c2ncn(-c3ccc(OC(F)(F)F)cc3)n2)cc1 (stereo not drawn) [F8, 1-(2-(4-Methylpentan-2-yl)thiophen-3-yl)-3-(4-(1-(4-(trifluoromethoxy)phenyl)-1H-1,2,4-triazol-3-yl)phenyl)urea] | D (No activity noticed in this bioassay) | 50 to 100 | 0
16 | COc1ccc(-c2ncsc2NC(=O)NCCc2ccc(-c3ncn(-c4ccc(OC(F)(F)F)cc4)n3)cc2)c(C)c1 [F63, 1-(4-(4-Methoxy-2-methylphenyl)thiazol-5-yl)-3-(4-(1-(4-(trifluoromethoxy)phenyl)-1H-1,2,4-triazol-3-yl)phenethyl)urea] | A (80-100) | 50 to 100 | 0
17 | CCc1ccccc1-c1ncsc1NC(=O)NCCc1ccc(-c2ncn(-c3ccc(OC(F)(F)F)cc3)n2)cc1 [F61, 1-(4-(2-ethylphenyl)thiazol-5-yl)-3-(4-(1-(4-(trifluoromethoxy)phenyl)-1H-1,2,4-triazol-3-yl)phenethyl)urea] | A (80-100) | 50 to 100 | 0
18 | O=C(Nc1ccc(-c2ncn(-c3ccc(OC(F)(F)F)cc3)n2)cc1)Nc1nccn1-c1cc(Cl)cc(Cl)c1 [F28, 1-(1-(3,5-Dichlorophenyl)-1H-imidazol-2-yl)-3-(4-(1-(4-(trifluoromethoxy)phenyl)-1H-1,2,4-triazol-3-yl)phenyl)urea] |  | 0 | 50 to 100
19 | Cc1ccc(C)c(-c2ncsc2NC(=O)NCCc2ccc(-c3ncn(-c4ccc(OC(F)(F)F)cc4)n3)cc2)c1 [F62, 1-(4-(2,5-Dimethylphenyl)thiazol-5-yl)-3-(4-(1-(4-(trifluoromethoxy)phenyl)-1H-1,2,4-triazol-3-yl)phenethyl)urea] | A (80-100) | 50 to 100 | 0
